Several values for one entry are separate records, joined by “and”; a condition that tells them apart may be missing. Identical values can stand only once.
Legend:
Caspase-8 = Caspase-8 level assay in MCF-7; format: cell-based, human; details: for Caspase-8 Fold change: MCF-7, versus untreated control; for Caspase-8 Conc.: MCF-7 cancer cell line
Description: Compounds 8g and 8h were evaluated as caspase-3, 8 and Bax activators and as down-regulator of the anti-apoptotic protein Bcl2 against the MCF-7 breast cancer cell line.[40] Appendix A ^† contains more details.
Compound 8g had the most overexpression of caspase-8 (2.60 ng mL^−1), followed by compound 8h (2.10 ng mL^−1) and staurosporine as a control (1.80 ng mL^−1). […]
monitored, and the substrate reaction stopped before the O.D. of the positive wells exceeds the limits of the instrument. The O.D. values at 450 nm can only be read after the Stop Solution has been added to each well. If using a reader that records only to 2.0 O.D., stopping the assay after […]
Add 100 μl of Stop Solution to each well. Tap side of plate gently to mix. The solution in the wells should change from blue to yellow. Read the absorbance of each well at 450 nm having blanked the plate reader against a chromogen blank composed of 100 μl each of Stabilized Chromogen and Stop Solution. Read the plate within 2 hours after adding the Stop Solution. Use a curve fitting software to generate the standard curve. A four-parameter algorithm provides the best standard curve fit. Read the concentrations for unknown samples and controls from the standard curve. Multiply value(s) obtained for sample(s) by the appropriate dilution factor to correct for the dilution in step 3. Samples producing signals greater than that of the highest standard should be diluted in Standard Diluent Buffer and reanalyzed.
4.2.1.6. Caspase-8 activation assay
Cells were obtained from American Type Culture Collection, cells were grown in RPMI 1640 containing 10% fetal bovine serum at 37°C, stimulated with the compounds to be tested for caspase8, and lysed with Cell Extraction Buffer. This lysate was diluted in Standard Diluent Buffer over the range of the assay and measured for human active caspase-8 content. (Cells are Plated in a density of 1.2 – 1.8 × 10,000 cells/well in a volume of 100µl complete growth medium + 100 ul of the tested compound per well in a 96-well plate for 24 hours before the enzyme assay for Tubulin.). The absorbance of each microwell was read on a spectro-photometer at 450 nm. A standard curve is prepared from 7human Caspase-8 standard dilutions and human Caspase-8 concentration determined.
4.2.1.7. Bax activation assay

Bcl-2 = Bcl-2 level assay in MCF-7; format: cell-based, human; details: for Bcl-2 Fold reduction: MCF-7, versus untreated control; for Bcl-2 Conc.: MCF-7 cancer cell line
Description: Compounds 8g and 8h were evaluated as caspase-3, 8 and Bax activators and as down-regulator of the anti-apoptotic protein Bcl2 against the MCF-7 breast cancer cell line.[40] Appendix A ^† contains more details. […]
4.2.1.8. Bcl-2inhibition assay
Mix all reagents thoroughly without foaming before use. Wash the microwells twice with approximately 300 μL Wash Buffer per well with thorough aspiration of microwell contents between washes. Take caution not to scratch the surface of the microwells. After the last wash, empty the wells and tap microwell strips on absorbent pad or paper towel to remove excess Wash Buffer. Use the microwell strips immediately after washing or place upside down on a wet absorbent paper for not longer than 15 minutes. […] Add 100 μL of Sample […]
Diluent in duplicate to all standard wells and to the blank wells. Prepare standard (1:2 dilution) in duplicate ranging from 32 ng/mL to 0.5 ng/mL. Add 100 μL of Sample Diluent, in duplicate, to the blank wells. Add 80 μL of Sample Diluent, in duplicate, to the sample wells. Add 20 μL of each Sample, in duplicate, to the designated wells. Add 50 μL of diluted biotin-conjugate to all wells, including the blank wells. Cover with a plate cover and incubate at room temperature, on a microplate shaker at 100 rpm if available, for 2 hours. Remove plate cover and empty the wells.
Wash microwell strips 3 times as described in step 2. Add 100 μL of diluted Streptavidin-HRP to all wells, including the blank wells. Cover with a plate cover and incubate at room temperature, on a microplate shaker at 100 rpm if available, for 1 hour. Remove plate cover and empty the wells.
Wash microwell strips 3 times as described in step 2. Proceed to the next step. Pipette 100 μl of mixed TMB Substrate Solution to all wells, including the blanks. Incubate the microwell strips at room temperature (18° to 25°C) for about 15 minutes, if available on a rotator set at 100 rpm.
Avoid direct exposure to intense light. The point, at which the substrate reaction is stopped, is often determined by the ELISA reader. Many ELISA readers record absorbance only up to 2.0
O.D. Therefore, the color development within individual microwells must be watched by the person running the assay and the substrate reaction stopped before positive wells are no longer properly detectable. Stop the enzyme reaction by quickly pipetting 100 μL of Stop Solution into each well, including the blank wells. It is important that the Stop Solution is spread quickly and uniformly throughout the microwells to completely inactivate the enzyme. Results must be read immediately after the Stop Solution is added or within one hour if the microwell strips are stored at 2 - 8°C in the dark. Read absorbance of each microwell on a spectrophotometer using 450 nm as the primary wavelength. […]
(FITC) and propidium iodide (PI) staining kit (BD Pharmingen, San Diego, USA). […]
μL of FITC and PI were added to Eppendorf tube, cells were vortexed, incubated for 15 min at room temperature in dark. Subsequently, cells were analyzed by flow cytometry (Becton Dickinson, Franklin Lakes, and USA).

Structure (SMILES)	Caspase-8 Fold change (Caspase-8)	Caspase-8 Conc. (Caspase-8)	Bcl-2 Fold reduction (Bcl-2)	Bcl-2 Conc. (Bcl-2)	Caspase-8 Conc. (Caspase-8; listed as staurosporine)
Cc1ccc(-n2cc(CSc3nc4ccccc4c(=O)n3-c3ccc(C)cc3)nn2)cc1 [Compound 8h, 2-(((1-(p-Tolyl)-1H-1,2,3-triazol-4-yl)methyl)thio)-3-(p-tolyl)quinazolin-4(3H)-one]	23	2.10 ng/mL and 2.10 ± 0.20 ng/mL	6	0.90 ng/mL	
CN[C@@H]1C[C@H]2O[C@@](C)([C@@H]1OC)n1c3ccccc3c3c4c(c5c6ccccc6n2c5c31)C(=O)NC4 [Staurosporine, reference compound]	20	1.80 ± 0.10 ng/mL	5	1.10 ng/mL	1.80 ng/mL
COc1ccc(-n2cc(CSc3nc4ccccc4c(=O)n3-c3ccc(C)cc3)nn2)cc1 [Compound 8g, 2-(((1-(4-Methoxyphenyl)-1H-1,2,3-triazol-4-yl)methyl)thio)-3-(p-tolyl)quinazolin-4(3H)-one]	28	2.60 ng/mL and 2.60 ± 0.20 ng/mL	7	0.70 ng/mL	

From publication PMC11618052, “Design, synthesis, and antiproliferative activity of new 1,2,3-triazole/quinazoline-4-one hybrids as dual EGFR/BRAF^V600E inhibitors” (RSC Advances, 2024)
